Where “and” joins values, the source holds several entries; their conditions need not be identical. Equal entries are not always repeated. Numbers after ± are expanded uncertainties.
Assay: activity coefficient (dimensionless); of the first substance listed, at infinite dilution; xn = mol fraction of the nth substance listed
Conditions: 333.15 K; 101 kPa; Liquid; Chromatography; x1 = 0

| Compound | activity coefficient |
| --- | --- |
| CC(C)CO [2-methyl-1-propanol] + CCCCCC[n+]1ccn(C)c1.O=S(=O)([N-]S(=O)(=O)C(F)(F)F)C(F)(F)F | 1.49 and 1.52 |
| CC(C)CO [2-methyl-1-propanol] + CCCCn1cc[n+](C)c1.COS(=O)(=O)[O-] | 1.28 ± 0.1 |
| CC(C)CO [2-methyl-1-propanol] + CCCCn1cc[n+](C)c1.F[P-](F)(F)(F)(F)F | 4.23 ± 0.29 |
| CC(C)(C)O [2-methylpropan-2-ol] + CCCCCC[n+]1ccn(C)c1.O=S(=O)([N-]S(=O)(=O)C(F)(F)F)C(F)(F)F | 1.15 and 1.16 |
| CC(C)(C)O [2-methylpropan-2-ol] + CCCCn1cc[n+](C)c1.COS(=O)(=O)[O-] | 1.19 ± 0.1 |
| CC(C)(C)O [2-methylpropan-2-ol] + CCCCn1cc[n+](C)c1.F[P-](F)(F)(F)(F)F | 2.97 ± 0.2 |
| CCCCO [butan-1-ol] + CCCCCC[n+]1ccn(C)c1.O=S(=O)([N-]S(=O)(=O)C(F)(F)F)C(F)(F)F | 1.63 ± 0.12 |
| CCCCO [butan-1-ol] + CCCCn1cc[n+](C)c1.F[P-](F)(F)(F)(F)F | 4.49 ± 0.31 |
| CCC(C)O (stereo not drawn) [butan-2-ol] + CCCCCC[n+]1ccn(C)c1.O=S(=O)([N-]S(=O)(=O)C(F)(F)F)C(F)(F)F | 1.37 and 1.38 |
| CCC(C)O (stereo not drawn) [butan-2-ol] + CCCCn1cc[n+](C)c1.COS(=O)(=O)[O-] | 1.27 ± 0.1 |
| CCC(C)O (stereo not drawn) [butan-2-ol] + CCCCn1cc[n+](C)c1.F[P-](F)(F)(F)(F)F | 3.69 ± 0.25 |
| CCO [ethanol] + CCCCCC[n+]1ccn(C)c1.O=S(=O)([N-]S(=O)(=O)C(F)(F)F)C(F)(F)F | 1.24 and 1.23 |
| CCO [ethanol] + CCCCn1cc[n+](C)c1.COS(=O)(=O)[O-] | 0.62 ± 0.05 |
| CCO [ethanol] + CCCCn1cc[n+](C)c1.F[P-](F)(F)(F)(F)F | 2.32 ± 0.16 |
| CO [methanol] + CCCCCC[n+]1ccn(C)c1.O=S(=O)([N-]S(=O)(=O)C(F)(F)F)C(F)(F)F | 1.08 and 1.05 |
| CO [methanol] + CCCCn1cc[n+](C)c1.COS(=O)(=O)[O-] | 0.33 ± 0.04 |
| CO [methanol] + CCCCn1cc[n+](C)c1.F[P-](F)(F)(F)(F)F | 1.67 ± 0.11 |
| CCCO [propan-1-ol] + CCCCCC[n+]1ccn(C)c1.O=S(=O)([N-]S(=O)(=O)C(F)(F)F)C(F)(F)F | 1.38 ± 0.1 |
| CCCO [propan-1-ol] + CCCCn1cc[n+](C)c1.COS(=O)(=O)[O-] | 0.89 ± 0.07 |
| CCCO [propan-1-ol] + CCCCn1cc[n+](C)c1.F[P-](F)(F)(F)(F)F | 3.18 ± 0.22 |
| CC(C)O [propan-2-ol] + CCCCCC[n+]1ccn(C)c1.O=S(=O)([N-]S(=O)(=O)C(F)(F)F)C(F)(F)F | 1.17 and 1.15 |
| CC(C)O [propan-2-ol] + CCCCn1cc[n+](C)c1.COS(=O)(=O)[O-] | 0.91 ± 0.07 |
| CC(C)O [propan-2-ol] + CCCCn1cc[n+](C)c1.F[P-](F)(F)(F)(F)F | 2.83 ± 0.19 |

Same assay, conditions: 333.15 K; 101 kPa; Liquid; x1 = 0

| Compound | activity coefficient |
| --- | --- |
| CCCCO [butan-1-ol] + CCCCn1cc[n+](C)c1.COS(=O)(=O)[O-] | 1.37 ± 0.1 |

Same assay, conditions: 353.15 K; 101 kPa; Liquid; Chromatography; x1 = 0

| Compound | activity coefficient |
| --- | --- |
| CC(C)CO [2-methyl-1-propanol] + CCCCCC[n+]1ccn(C)c1.O=S(=O)([N-]S(=O)(=O)C(F)(F)F)C(F)(F)F | 1.3 ± 0.1 |
| CC(C)CO [2-methyl-1-propanol] + CCCCn1cc[n+](C)c1.COS(=O)(=O)[O-] | 1.12 ± 0.09 |
| CC(C)CO [2-methyl-1-propanol] + CCCCn1cc[n+](C)c1.F[P-](F)(F)(F)(F)F | 3.23 ± 0.22 |
| CC(C)(C)O [2-methylpropan-2-ol] + CCCCCC[n+]1ccn(C)c1.O=S(=O)([N-]S(=O)(=O)C(F)(F)F)C(F)(F)F | 1.04 and 1.03 |
| CC(C)(C)O [2-methylpropan-2-ol] + CCCCn1cc[n+](C)c1.COS(=O)(=O)[O-] | 1.22 ± 0.1 |
| CC(C)(C)O [2-methylpropan-2-ol] + CCCCn1cc[n+](C)c1.F[P-](F)(F)(F)(F)F | 2.45 ± 0.17 |
| CCCCO [butan-1-ol] + CCCCCC[n+]1ccn(C)c1.O=S(=O)([N-]S(=O)(=O)C(F)(F)F)C(F)(F)F | 1.33 ± 0.1 |
| CCCCO [butan-1-ol] + CCCCn1cc[n+](C)c1.F[P-](F)(F)(F)(F)F | 3.43 ± 0.23 |
| CCC(C)O (stereo not drawn) [butan-2-ol] + CCCCCC[n+]1ccn(C)c1.O=S(=O)([N-]S(=O)(=O)C(F)(F)F)C(F)(F)F | 1.2 and 1.21 |
| CCC(C)O (stereo not drawn) [butan-2-ol] + CCCCn1cc[n+](C)c1.COS(=O)(=O)[O-] | 1.21 ± 0.1 |
| CCC(C)O (stereo not drawn) [butan-2-ol] + CCCCn1cc[n+](C)c1.F[P-](F)(F)(F)(F)F | 2.87 ± 0.2 |
| CCO [ethanol] + CCCCCC[n+]1ccn(C)c1.O=S(=O)([N-]S(=O)(=O)C(F)(F)F)C(F)(F)F | 1.05 and 1.03 |
| CCO [ethanol] + CCCCn1cc[n+](C)c1.COS(=O)(=O)[O-] | 0.59 ± 0.05 |
| CCO [ethanol] + CCCCn1cc[n+](C)c1.F[P-](F)(F)(F)(F)F | 1.85 ± 0.12 |
| CO [methanol] + CCCCCC[n+]1ccn(C)c1.O=S(=O)([N-]S(=O)(=O)C(F)(F)F)C(F)(F)F | 0.93 and 0.91 |
| CO [methanol] + CCCCn1cc[n+](C)c1.COS(=O)(=O)[O-] | 0.38 ± 0.04 |
| CO [methanol] + CCCCn1cc[n+](C)c1.F[P-](F)(F)(F)(F)F | 1.36 ± 0.09 |
| CCCO [propan-1-ol] + CCCCCC[n+]1ccn(C)c1.O=S(=O)([N-]S(=O)(=O)C(F)(F)F)C(F)(F)F | 1.19 and 1.18 |
| CCCO [propan-1-ol] + CCCCn1cc[n+](C)c1.COS(=O)(=O)[O-] | 0.82 ± 0.07 |
| CCCO [propan-1-ol] + CCCCn1cc[n+](C)c1.F[P-](F)(F)(F)(F)F | 2.45 ± 0.17 |
| CC(C)O [propan-2-ol] + CCCCCC[n+]1ccn(C)c1.O=S(=O)([N-]S(=O)(=O)C(F)(F)F)C(F)(F)F | 1.08 and 1.02 |
| CC(C)O [propan-2-ol] + CCCCn1cc[n+](C)c1.COS(=O)(=O)[O-] | 0.88 ± 0.07 |
| CC(C)O [propan-2-ol] + CCCCn1cc[n+](C)c1.F[P-](F)(F)(F)(F)F | 2.25 ± 0.15 |

Same assay, conditions: 353.15 K; 101 kPa; Liquid; x1 = 0

| Compound | activity coefficient |
| --- | --- |
| CCCCO [butan-1-ol] + CCCCn1cc[n+](C)c1.COS(=O)(=O)[O-] | 1.21 ± 0.08 |
